Measurements published in EP0840727B1, “3-HYDROXY-2(1H)-[…] AGENTS” (priority 1995, dated 1997).
Marks after values point to notes of the source that are not given here.

Legend:
[1] = Promoting excretion of 238Pu(IV) in mice by injected ligands; format: in vivo; conditions: for percent of injected ^238Pu ± SD at 24 h, tissues: liver / percent of injected ^238Pu ± SD at 24 h, tissues: skeleton / percent of injected ^238Pu ± SD at 24 h, tissues: soft tissue / percent of injected ^238Pu ± SD at 24 h, whole body / percent of injected ^238Pu at 24 h, excreta: feces and GI contents / percent of injected ^238Pu at 24 h, excreta: urine 0-24 h / percent of injected ^238Pu at 24 h, tissues: kidneys: ligand 30 µmol kg^-1 ip at 1 h after iv ^238Pu(IV) citrate, kill at 24 h; for percent of injected ^238Pu at 24 h, excreta: feces and GI contents / percent of injected ^238Pu at 24 h, excreta: urine 0-24 h / percent of injected ^238Pu at 24 h, tissues: kidneys: pooled samples; for Pu removal (in words): injected ligands, 30 µmol/kg intraperitoneally one hour after ^238Pu(IV)
From the text: Animal studies were completed using methods detailed in Radiation Protection Dosimetry, in press, P. W. Durbin et al., "In Vivo Chelation of Am(III), Pu(IV), Np(V) and U(VI) in Mice by TREN-(Me-3,2-HOPO)"; Radiation Protection Dosimetry, 17, No. 1, 1989, p. 351, P. W. Durbin et al., "Removal of ^238Pu(IV) from Mice by Polycatechoylate, -Hydroxamate or -Hydroxypyridinonate Ligands"; Radiation Research, 99, 1984, p. 85, P. W. Durbin et al., "Specific Sequestering Agents for the Actinides ..."; Radiation Research, 99, 1984, p. 106, P. W. Durbin et al., "Removal of Pu and Am from Beagles and Mice ..."; Radiation Research, 81, 1980, p. 170, R. D. Lloyd et al., and P. W. Durbin et al., "Specific Sequestering Agents for the Actinides ...". The foregoing articles are hereby incorporated by reference.
Radionuclides used in the animal studies came from a variety of sources. However, they can be purchased commercially. The ^238Pu(IV) citrate and ^241Am(III) citrate solutions were prepared for animal injection by 8- to 10-fold dilution with 0.14M NaCl (pH 4) of concentrated stock solutions (0.08M sodium citrate buffer) that had been held in frozen storage at Lawrence Berkeley Laboratory (hereinafter LBL) for several years. [The ^238Pu(IV) was originally obtained from D. R. Atherton at the University of Utah Radiobiology Laboratory, Salt Lake City. The ^241Am(III) solution had been obtained many years earlier from the LBL Actinide Chemistry group.]
The novel chelating agents of the present invention and comparative compounds were tested for their effectiveness in promoting excretion ^238Pu(IV) in nice by injected ligands as follows. Mice, in groups of five, each received an intravenous injection of 1850 Bq ^238Pu(IV) in 0.2 mL of citrate buffer. One hour later, 30 µmol/kg of ligand was injected intraperitoneally in 0.5 mL of saline. The mice were killed 24 hours after the Pu injection, frozen, and dissected after partial thawing. The ^238Pu in skeleton, soft tissues, and separated excreta was determined by counting the ^234U L x-rays. Results of removal of ^238Pu(IV) from mice by injected ligands are summarized in Table 3, which also includes data for CaNa3-DTPA and other reference ligands and the Pu-injected controls. […] While the case of multidente 1,2-HOPO and catechoylamide chelating agents, octadentates are always better chelating agents than the corresponding hexadentates and tetradentates.

[2] = In vivo acute toxicity test of injected ligands in mice
Experimental: The test of acute toxicity of novel and comparative ligands was carried out as follows. Groups of five mice were each given a single i.p. injection of […] of ligand and a day for 10 days or given two i.p. injections of […] in 8 hours. The ligand was dissolved in 0.5 to 1.0 ml of saline at pH 7 to 8. After a period of observation, the mice were killed; selected tissues were removed and fixed for histopathological examination; and unusual findings at autopsy were recorded. […]

[3] = protocol IA, 100 µmol kg^-1 x 2 daily, study length 6 d, data for two moribund mice autopsied on d 3
[4] = protocol IB, 100 µmol kg^-1, study length 5 d
[5] = protocol I, 100 µmol kg^-1 x 10 daily i.p., study length 11 d
[6] = protocol I, 100 µmol kg^-1 x 10 daily i.p., study length 21 d
[7] = protocol II, 500 µmol kg^-1 x 2 in 8 h, study length 11 d

Row | SMILES | percent of injected ^238Pu ± SD at 24 h, tissues: liver [1] | percent of injected ^238Pu ± SD at 24 h, tissues: skeleton [1] | percent of injected ^238Pu ± SD at 24 h, tissues: soft tissue [1] | percent of injected ^238Pu ± SD at 24 h, whole body [1] | percent of injected ^238Pu at 24 h, excreta: feces and GI contents [1] | percent of injected ^238Pu at 24 h, excreta: urine 0-24 h [1] | percent of injected ^238Pu at 24 h, tissues: kidneys [1] | other results
1 | Cn1ccc(C(=O)NCCCNC(=O)c2ccn(C)c(=O)c2O)c(O)c1=O [3-LI-Me-3,2-HOPO, 1,3-bis[(3-hydroxy-1-methyl-2-oxo-1,2-dihydropyridin-4yl)carboxamido]propane] | 9.5 ± 4.9^d percent of injected ^238Pu | 14 ± 1.9% of injected ^238Pu | 2.6 ± 0.4% of injected ^238Pu | 27 ± 5.2% of injected ^238Pu | 41.6% of injected ^238Pu | 32% of injected ^238Pu | 0.5% of injected ^238Pu | no. of survivors ([2]; protocol IA, 100 µmol kg^-1 x 2 daily, study length 6 d): 0; percent control mean + SD: body weight [2, 3]: 89 ± 4 percent control; percent control mean + SD: kidney weight [2, 3]: 222 ± 29 percent control; percent control mean + SD: plasma urea N [2, 3]: >1800 percent control
2 | Cn1ccc(C(=O)NCCCCNC(=O)c2ccn(C)c(=O)c2O)c(O)c1=O [4-LI-Me-3,2-HOPO] | 3.7 ± 1.5^d percent of injected ^238Pu | 11 ± 1.7% of injected ^238Pu | 1.9 ± 0.5% of injected ^238Pu | 17 ± 2.4^d percent of injected ^238Pu | 63% of injected ^238Pu | 19.4% of injected ^238Pu | 0.4% of injected ^238Pu | Pu removal (in words) [1]: as effective or more effective than the hexadentate and octadentate chelating agents; no. of survivors [2, 4]: 0; percent control mean + SD: body weight [2, 4]: 85 ± 8 percent control; percent control mean + SD: kidney weight [2, 4]: 190 ± 63 percent control; percent control mean + SD: plasma urea N [2, 4]: >2000 percent control
3 | Cn1ccc(C(=O)NCCCCCNC(=O)c2ccn(C)c(=O)c2O)c(O)c1=O [5-LI-Me-3,2-HOPO, 1,5-bis[(3-hydroxy-1-methyl-2-oxo-1,2-dihydropyridin-4-yl)carboxamido]pentane] | 3.1 ± 0.8^d percent of injected ^238Pu | 10 ± 1.2% of injected ^238Pu | 1.9 ± 0.5% of injected ^238Pu | 16 ± 1.9^d percent of injected ^238Pu | 67.6% of injected ^238Pu | 17.5% of injected ^238Pu | 0.3% of injected ^238Pu | Pu removal (in words) [1]: as effective or more effective than the hexadentate and octadentate chelating agents; toxicity (in words) ([2]; even at the relatively high dosage of 2x500 µmol/kg in 8 hours): low toxicity; no. of survivors [2, 5]: 5; percent control mean + SD: body weight [2, 5]: 102 ± 5 percent control; percent control mean + SD: kidney weight [2, 5]: 109 ± 14 percent control; percent control mean + SD: plasma urea N [2, 5]: 89 ± 1 percent control; no. of survivors [2, 6]: 5; percent control mean + SD: body weight [2, 6]: 102 ± 5 percent control; percent control mean + SD: kidney weight [2, 6]: 100 ± 4 percent control; percent control mean + SD: plasma urea N [2, 6]: 101 ± 2 percent control; no. of survivors [2, 7]: 5; percent control mean + SD: body weight [2, 7]: 99 ± 3 percent control; percent control mean + SD: kidney weight [2, 7]: 109 ± 9 percent control; percent control mean + SD: plasma urea N [2, 7]: 98 ± 18 percent control
4 | Cn1ccc(C(=O)NCCN(CCCN(CCNC(=O)c2ccn(C)c(=O)c2O)CCNC(=O)c2ccn(C)c(=O)c2O)CCNC(=O)c2ccn(C)c(=O)c2O)c(O)c1=O [H(3,2)-Me-3,2-HOPO, N,N,N',N'-tetrakis[(3-hydroxy-1-methyl-2-oxo-1,2-dihydropyridin-4-yl)carboxamido-ethyl]-propylenediamine] | 14 ± 6.1% of injected ^238Pu | 10 ± 2.0% of injected ^238Pu | 2.4 ± 0.3^d percent of injected ^238Pu | 28 ± 4.8% of injected ^238Pu | 52.1% of injected ^238Pu | 19.5% of injected ^238Pu | 1.2% of injected ^238Pu | –
5 | Cn1ccc(C(=O)NCCN(CCCCN(CCNC(=O)c2ccn(C)c(=O)c2O)CCNC(=O)c2ccn(C)c(=O)c2O)CCNC(=O)c2ccn(C)c(=O)c2O)c(O)c1=O [H(4,2)-Me-3,2-HOPO, N,N,N',N'-tetrakis[(3-hydroxy-1-methyl-2-oxo-1,2-dihydropyridin-4-yl)carboxamido-ethyl]-butylenediamine] | 29 ± 6.1% of injected ^238Pu | 12 ± 2.9% of injected ^238Pu | 1.9 ± 1.0% of injected ^238Pu | 46 ± 8.5% of injected ^238Pu | 26.8% of injected ^238Pu | 28% of injected ^238Pu | 1.8% of injected ^238Pu | –
6 | Cc1c(CNC(=O)c2ccn(C)c(=O)c2O)c(C)c(CNC(=O)c2ccn(C)c(=O)c2O)c(C)c1CNC(=O)c1ccn(C)c(=O)c1O [ME-Me-3,2-HOPO] | 6.1 ± 4.9^d percent of injected ^238Pu | 12 ± 1.8% of injected ^238Pu | 3.0 ± 2.0% of injected ^238Pu | 22 ± 8.5^d percent of injected ^238Pu | 70.1% of injected ^238Pu | 33.5% of injected ^238Pu | 0.9% of injected ^238Pu | –
7 | Cn1ccc(C(=O)NCCN(CCNC(=O)c2ccn(C)c(=O)c2O)CCN(CC(=O)O)CC(=O)O)c(O)c1=O [TREN-bis(Me-3,2-HOPO)-bis acetic acid] | 6.6 ± 2.2^d percent of injected ^238Pu | 20 ± 1.7% of injected ^238Pu | 2.7 ± 0.8% of injected ^238Pu | 30 ± 3.6% of injected ^238Pu | 34.6% of injected ^238Pu | 8.7% of injected ^238Pu | 0.5% of injected ^238Pu | –
8 | Cn1ccc(C(=O)NCCCN(CCCNC(=O)c2ccn(C)c(=O)c2O)CCCNC(=O)c2ccn(C)c(=O)c2O)c(O)c1=O [TRPN-Me-3,2-HOPO] | 17 ± 5.0% of injected ^238Pu | 14 ± 3.2% of injected ^238Pu | 2.0 ± 1.1% of injected ^238Pu | 33 ± 5.3% of injected ^238Pu | 11.5% of injected ^238Pu | 55% of injected ^238Pu | – | –
